Laboratory results reported in publication PMC3473359, “Formation of a heterooctameric complex between aspartate α-decarboxylase and its cognate activating factor, PanZ, is CoA-dependent” (Biochemical and Biophysical Research Communications, 2012).

Experiments:
PanZ [1] = biological target: T1, PanZ (Escherichia coli, UniProt P37613); experiment: isothermal titration calorimetry; type: binding
T1 construct: His-tagged PanZ from pCA24N(-GFP)-his-panZ, expressed in E. coli delta-panD delta-panZ (DE3); Ni-NTA and Superdex 75; monomer; copurifies partly with CoA
T1 sequence (P37613 1-127): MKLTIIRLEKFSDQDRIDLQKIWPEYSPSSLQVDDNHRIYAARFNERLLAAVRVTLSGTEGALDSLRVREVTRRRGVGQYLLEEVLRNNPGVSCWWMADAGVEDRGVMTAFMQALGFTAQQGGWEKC
Text: isothermal titration calorimetry on PanZ

PanZ [2] = biological target: T1, PanZ; experiment: isothermal titration calorimetry; type: binding; conditions: pH 7.4, 25 °C; sample contains copurified CoA

| Kd (PanZ [1]) | Compound | isothermal titration calorimetry (PanZ [2]) |
| --- | --- | --- |
| 1950 ± 160 nM | CC(C)(COP(=O)(O)OP(=O)(O)OC[C@H]1O[C@@H](n2cnc3c(N)ncnc32)[C@H](O)[C@@H]1OP(=O)(O)O)[C@@H](O)C(=O)NCCC(=O)NCCS [CoA] | – |
| – | CC(=O)SCCNC(=O)CCNC(=O)[C@H](O)C(C)(C)COP(=O)(O)OP(=O)(O)OC[C@H]1O[C@@H](n2cnc3c(N)ncnc32)[C@H](O)[C@@H]1OP(=O)(O)O [acetyl CoA] | titration of CoA and AcCoA into PanZ showed binding |
